Target: T1, leukotriene B4 specific receptor on the membrane of human neutrophils (Homo sapiens, UniProt Q15722)
T1 construct: a specific receptor on the membrane of human neutrophils; endogenous in cells; host or cells: human peripheral blood neutrophils (buffy coats of two blood donors; intact cells, at least 90% neutrophils)
Experiment: Inhibition of Binding of ^3H-LTB4 to Peripheral Human Neutrophils (radio-ligand binding assay)
Conditions: 0.1-0.2 nM ^3H-LTB4, 10 minutes at 4° C., read-out: LTB4 Binding Inhibition (percent inhibition); for inhibition at 1 µM: Drug Concentration 10^-6 M; for inhibition at 0.1 µM: Drug Concentration 10^-7 M; for inhibition at 10 µM: Drug Concentration 10^-5 M
Experimental: Inhibition of Binding of ^3 H-LTB4 to Peripheral Human Neutrophils
The effectiveness of compounds to inhibit the binding of leukotriene B4 to a specific receptor on the membrane of human neutrophils was measured by using an adaptation of a radio-ligand binding assay developed by Goldman and Goetzl, J. Immunol., 129, 1600 (1982). Other investigators have developed similar assays (see, e.g., Kreisle, et al., J. Exp. Med., 157, 628 (1983) and Lin, et al., Prostaglandins, 28, 837 (1984)).
Cells used in the assay were isolated by standard techniques of centrifugation on Ficoll-Hypaque, dextran 70 sedimentation and hypotonic lysis. The following procedure was used. Freshly-prepared buffy coat layers from two individuals were obtained from a local blood donor center. The cells were mixed and diluted to 484 ml with phosphate buffered saline containing heparin (10 units/ml) and heat-inactivated calf serum (5%). This was divided into 20 ml aliquots and the aliquots layered on top of Ficoll-Paque (12 ml). The material was then centrifuged at 500 g for 40 minutes at room temperature. The resulting upper layer of platelets and mononuclear cells was discarded. The lower layer containing erythrocytes and neutrophils was retained. Buffer was added (1 ml per 4 ml of lower layer) and the suspension mixed. For each milliliter of this mixture, 0.33 ml of 6% Macrodex was added. After stirring, the cells were allowed to sediment for 1 hour at 37° C. The resulting erythrocyte pellet was discarded and the neutrophil enriched supernatant fluid centrifuged at 500 g for 10 minutes at 4° C. Erythrocytes still present in this cell pellet were lysed by incubating the cells with 5-8 ml ice-cold distilled water for 30-45 seconds. Subsequently, the volume was made up to 50 ml by addition of ice-cold buffer and the cells resuspended. The suspension was then centrifuged at 300 g for 10 minutes at 4° C. The cells were finally resuspended at a cell density of 2×10^7 cells/ml in the assay buffer. This buffer consisted of Hanks' balanced salt solution and 0.1% ovalbumin (pH 7.3).
The amount of bound ^3 H-LTB4 was then measured and compared with the amount bound in the absence of test compound. The assay was carried out in microcentrifuge tubes by adding first 10 μl test compound dissolved in DMSO, followed by adding 20 μl ^3 H-LTB4 diluted in assay buffer, and finally adding 500 μl of the cell suspension. At the end of the 10 minutes incubation, 300 μl of a mixture of dibutyl and dinonyl phthalate (7:2) were added and the tubes centrifuged for 2 minutes in a microcentrifuge. The radioactivity bound to the cell pellet was measured by scintillation spectroscopy. Appropriate corrections for nonspecific bonding of ^3 H-LTB4 were made.

T1 sequence (Q15722 whole entry): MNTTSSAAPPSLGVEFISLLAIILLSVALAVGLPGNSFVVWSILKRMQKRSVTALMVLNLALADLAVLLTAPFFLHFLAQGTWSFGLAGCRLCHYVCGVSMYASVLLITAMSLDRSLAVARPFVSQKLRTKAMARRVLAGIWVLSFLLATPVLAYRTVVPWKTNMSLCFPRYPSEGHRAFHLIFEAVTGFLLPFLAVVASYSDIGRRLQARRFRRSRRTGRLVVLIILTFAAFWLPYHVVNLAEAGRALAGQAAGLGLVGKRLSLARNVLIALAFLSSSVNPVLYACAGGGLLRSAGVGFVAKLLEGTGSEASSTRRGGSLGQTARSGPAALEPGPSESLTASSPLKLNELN

inhibition at 1 µM [%]	inhibition at 0.1 µM [%]	inhibition at 10 µM [%]	SMILES
23	-4	–	CCCCCCCCCCOc1cc2oc3ccc(C(=O)O)cc3c(=O)c2cc1CCC(=O)O [Example 3, 7-Carboxy-3-decyloxy-9-oxo-9H-xanthene-2-propanoic acid]
27	-7	–	CCCCCCCCCCOc1ccc2c(=O)c3cccc(C(=O)O)c3oc2c1CCC(=O)O [Example 2, 5-Carboxy-3-(decyloxy)-9-oxo-9H-xanthene-4-propanoic acid]
103	85	106	COc1ccc(CCCCCCOc2ccc3c(=O)c4cc(C(=O)O)ccc4oc3c2CCC(=O)O)cc1 [Example 7, 7-Carboxy-3-{[6-(4-methoxyphenyl)hexyl]oxy}-9-oxo-9H-xanthene-4-propanoic acid]
99	91	102	COc1ccc(C=CCCCCOc2ccc3c(=O)c4cc(C(=O)O)ccc4oc3c2CCC(=O)O)cc1 [Example 6, 7-Carboxy-3-{[6-(4-methoxyphenyl)-5-hexenyl]oxy}-9-oxo-9H-xanthene-4-propanoic acid]
19	-4	68	CCCCCCCCCCOc1cc2c(cc1CCC(=O)O)C(=O)c1cc(C(=O)O)ccc1-2 [Example 8, 7-Carboxy-3-decyloxy-9-oxo-9H-fluorene-2-propanoic acid]
25	2	–	CCCCCCCCCCOc1cc2oc3c(C(=O)O)cccc3c(=O)c2cc1CCC(=O)O [Example 1, 5-Carboxy-3-(decyloxy)-9-oxo-9H-xanthene-2-propanoic acid]
86	52	102	CCCCCCCCCCOc1ccc2c(=O)c3cc(C(=O)O)ccc3oc2c1CCC(=O)O [Example 4, 7-Carboxy-3-(decyloxy)-9-oxo-9H-xanthene-4-propanoic acid]

From patent US4996230A, “Leukotriene antagonists” (Eli Lilly and Company, priority 1990, dated 1991)
